Data on 22 compounds can be found in patent US7045532B2 (Millennium Pharmaceuticals, Inc., priority 1999, dated 2006).

The target in one test is T1, ACE (Sigma, A2580) (Sus scrofa, UniProt F1RRW5).
T1 construct: ACE from porcine kidney; purchased Sigma A2580; host or cells: porcine kidney
T1 sequence (F1RRW5 34-1309): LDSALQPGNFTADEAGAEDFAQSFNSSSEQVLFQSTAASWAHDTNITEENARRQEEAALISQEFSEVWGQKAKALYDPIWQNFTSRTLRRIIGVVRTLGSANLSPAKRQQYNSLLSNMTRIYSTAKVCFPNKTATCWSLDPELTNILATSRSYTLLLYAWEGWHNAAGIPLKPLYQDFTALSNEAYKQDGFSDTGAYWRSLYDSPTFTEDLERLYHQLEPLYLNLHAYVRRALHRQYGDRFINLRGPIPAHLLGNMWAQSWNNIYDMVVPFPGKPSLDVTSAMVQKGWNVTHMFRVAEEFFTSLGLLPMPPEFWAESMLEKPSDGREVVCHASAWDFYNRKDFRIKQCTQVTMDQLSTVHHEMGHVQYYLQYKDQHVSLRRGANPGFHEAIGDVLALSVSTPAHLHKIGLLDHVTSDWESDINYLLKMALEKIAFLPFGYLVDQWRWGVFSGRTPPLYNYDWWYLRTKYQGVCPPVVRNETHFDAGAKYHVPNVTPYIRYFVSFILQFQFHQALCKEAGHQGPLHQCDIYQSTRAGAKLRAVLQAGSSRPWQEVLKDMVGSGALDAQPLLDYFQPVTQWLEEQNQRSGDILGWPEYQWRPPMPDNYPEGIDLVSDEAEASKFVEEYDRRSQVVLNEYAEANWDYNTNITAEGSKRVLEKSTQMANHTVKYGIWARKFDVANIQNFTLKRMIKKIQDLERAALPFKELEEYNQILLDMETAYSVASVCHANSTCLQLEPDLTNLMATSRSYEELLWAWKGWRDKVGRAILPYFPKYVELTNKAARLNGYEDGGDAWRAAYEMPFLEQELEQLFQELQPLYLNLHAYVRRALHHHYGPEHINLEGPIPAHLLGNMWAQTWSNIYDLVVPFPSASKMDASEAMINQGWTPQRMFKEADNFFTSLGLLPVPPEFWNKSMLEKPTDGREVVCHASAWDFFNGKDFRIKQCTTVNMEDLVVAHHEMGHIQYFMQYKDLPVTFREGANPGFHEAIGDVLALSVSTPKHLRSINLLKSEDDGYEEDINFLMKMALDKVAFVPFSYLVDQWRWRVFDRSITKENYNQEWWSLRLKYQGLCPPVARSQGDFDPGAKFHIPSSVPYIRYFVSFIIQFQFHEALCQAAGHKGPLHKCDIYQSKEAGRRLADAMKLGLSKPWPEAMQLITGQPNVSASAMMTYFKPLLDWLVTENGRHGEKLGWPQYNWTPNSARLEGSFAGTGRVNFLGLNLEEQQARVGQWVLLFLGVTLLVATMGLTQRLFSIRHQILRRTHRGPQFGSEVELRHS
Put plainly: ACE enzymatic activity assay. Type of test: biochemical, porcine. To be noted: Ki class; compounds tested in 5% DMSO, 12 concentrations. In a few lines:
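Fluorogenic substrate cleavage by 1 nM ACE, read at 320/405 nm after EDTA stop at ~30 min. Reactions at 25 °C, pH 7.5, in HEPES/NaCl/Brij-35 buffer; compounds tested at 12 concentrations in 5% DMSO.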

The target in test [1] is ACE-2 (Rattus norvegicus, UniProt Q5EGZ1). Put plainly: ACE-2 Competitive Substrate Assay, rat ACE-2. The note with it: Ki class; compounds tested in 5% DMSO, 12 concentrations. In kind it is biochemical.
Chain of ACE-2 (Rattus norvegicus, UniProt Q5EGZ1) (Q5EGZ1 18-805): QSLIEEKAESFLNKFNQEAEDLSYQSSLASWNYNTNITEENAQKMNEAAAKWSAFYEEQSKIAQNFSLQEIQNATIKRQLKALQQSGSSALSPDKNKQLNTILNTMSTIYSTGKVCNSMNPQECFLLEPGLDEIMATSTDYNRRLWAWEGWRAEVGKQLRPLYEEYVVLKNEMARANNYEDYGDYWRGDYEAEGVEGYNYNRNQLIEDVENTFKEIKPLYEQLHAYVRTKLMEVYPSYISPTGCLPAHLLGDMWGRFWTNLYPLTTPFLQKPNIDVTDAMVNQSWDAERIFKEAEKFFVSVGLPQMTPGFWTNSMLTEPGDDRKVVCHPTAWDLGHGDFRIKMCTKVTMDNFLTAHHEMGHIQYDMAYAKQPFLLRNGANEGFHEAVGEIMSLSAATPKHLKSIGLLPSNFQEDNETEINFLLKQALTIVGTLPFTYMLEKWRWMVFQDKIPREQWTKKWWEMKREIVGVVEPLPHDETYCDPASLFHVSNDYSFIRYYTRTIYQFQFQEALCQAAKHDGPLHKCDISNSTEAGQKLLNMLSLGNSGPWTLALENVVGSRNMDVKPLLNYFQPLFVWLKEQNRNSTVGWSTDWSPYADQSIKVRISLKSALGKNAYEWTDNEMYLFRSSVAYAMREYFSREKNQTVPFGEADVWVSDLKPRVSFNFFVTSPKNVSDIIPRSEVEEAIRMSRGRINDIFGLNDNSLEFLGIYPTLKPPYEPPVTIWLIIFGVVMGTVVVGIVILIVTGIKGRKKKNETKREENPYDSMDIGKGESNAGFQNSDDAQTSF
Another test addresses T2, Carboxypeptidase A (Bos taurus, UniProt P00730).
T2 sequence (P00730 111-419): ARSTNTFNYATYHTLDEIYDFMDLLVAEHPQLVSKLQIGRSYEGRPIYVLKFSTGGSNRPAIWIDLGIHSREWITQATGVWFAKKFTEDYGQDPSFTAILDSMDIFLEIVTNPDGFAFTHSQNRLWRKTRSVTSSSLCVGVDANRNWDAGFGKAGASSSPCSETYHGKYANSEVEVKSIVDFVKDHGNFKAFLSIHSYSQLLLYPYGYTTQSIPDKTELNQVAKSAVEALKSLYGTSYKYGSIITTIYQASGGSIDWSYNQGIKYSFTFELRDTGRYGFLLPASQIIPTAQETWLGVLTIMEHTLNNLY
Put plainly: Carboxypeptidase A activity assay. In kind it is biochemical. To be noted: Ki class; compounds tested in 5% DMSO, 12 concentrations. In a few lines:
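Ki obtained by correcting apparent Ki for substrate, Ki=Kiapp/(1+[S]/Km), from 12-concentration series. Enzyme activity read by absorbance at 328 nm with 5% DMSO present, EDTA stop.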

For test [2], the target named is T3, ACE-2 (Homo sapiens, UniProt Q9BYF1).
T3 construct: a stop codon inserted after the serine immediately preceding the transmembrane domain; made in house; host or cells: CHO K1 cells (transient transfection, purified from conditioned medium)
T3 sequence (Q9BYF1 18-740 limits assumed): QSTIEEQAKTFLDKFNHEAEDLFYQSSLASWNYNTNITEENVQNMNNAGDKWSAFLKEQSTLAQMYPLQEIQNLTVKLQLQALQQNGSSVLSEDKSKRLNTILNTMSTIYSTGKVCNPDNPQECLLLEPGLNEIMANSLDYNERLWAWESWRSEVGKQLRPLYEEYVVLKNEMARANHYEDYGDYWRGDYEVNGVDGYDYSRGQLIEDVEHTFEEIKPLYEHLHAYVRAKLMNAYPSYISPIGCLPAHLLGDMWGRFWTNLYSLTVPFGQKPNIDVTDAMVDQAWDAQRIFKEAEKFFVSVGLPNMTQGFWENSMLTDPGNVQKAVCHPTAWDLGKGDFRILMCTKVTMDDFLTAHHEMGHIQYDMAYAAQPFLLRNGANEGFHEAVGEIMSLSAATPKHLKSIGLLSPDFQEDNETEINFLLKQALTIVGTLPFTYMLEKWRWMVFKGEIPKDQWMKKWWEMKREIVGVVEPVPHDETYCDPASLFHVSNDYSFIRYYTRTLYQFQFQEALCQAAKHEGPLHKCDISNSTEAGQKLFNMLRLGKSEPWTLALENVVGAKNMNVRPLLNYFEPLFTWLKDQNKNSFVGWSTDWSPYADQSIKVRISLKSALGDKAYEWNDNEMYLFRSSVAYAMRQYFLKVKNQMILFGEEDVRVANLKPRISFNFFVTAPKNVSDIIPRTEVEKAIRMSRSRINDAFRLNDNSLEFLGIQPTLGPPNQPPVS
As to the kind of experiment: ACE-2 Competitive Substrate Assay (ACS Assay). In kind it is biochemical. To be noted: Ki class; compounds tested in 5% DMSO, 12 concentrations; read-out: Human ACE-2 Activity.
Method: An example of such an assay is the ACE-2 Competitive Substrate Assay (ACS Assay).
ACE-2 enzymatic activity was assayed in microtitre plates by the following procedure. The ACE-2 assay buffer used contained 50 mM MES (Boehringer-Mannheim), 300 mM NaCl (Sigma) and 0.01% Brij-35 (Pierce Chemical Co.) at pH 6.5.
Reactions were mixed and incubated at 25° C.
The activity of the test compounds was investigated using the procedure outlined above. The compounds were tested in 5% DMSO. Enzyme activity was measured at 12 compound concentrations.
The following reagents, equipment, stock solutions, and working solutions are used for the ACE-2 assay.
The assay buffer is prepared using 50 mM Mes, 300 mM NaCl, and 0.01% Brij 35, pH 6.5. These components are measured and made up to approximately 800 ml with nanopure water. Using 1M NaOH the pH is adjusted to 6.5 and the solution is then made up to the final volume of 1 L using nanopure water. The buffer is filtered through a 0.45 um disposable filter unit and stored at +4° C. until needed.
This working solution maintains activity for up to 8 hours at room temperature.
The working ACE-2 solution (for using with Mca-APK(Dnp)) is prepared by thawing ACE-2 and diluting it to a concentration of 1 nM using the assay buffer at room temperature.
These solutions are stable up to 8 hours but can not be frozen-thawed for reuse.
Multiple well plates are used for this experiment.
Approximately 360 compounds are tested per plate. Five μl per of each test compound is added in each well. […] Immediately thereafter, 20 μl of Mca-XXX(Dnp) working solution is added per well and mixed for 30 seconds. The reaction is allowed to progress for approximately 60 minutes.
After approximately 60 minutes, 20 μl of 50 mM EDTA is added per well (reaction is linear up to 90 minutes) and mixed for 30 seconds. At this point the fluorescent signal is stable up to 20 hours at room temperature.

Consider `CC(C)C[C@@H](N[C@H](C(=O)O)c1ccccc1)C(=O)O` [BS, 2-[(Carboxy-phenyl-methyl)-amino]-4-methyl-pentanoic acid], for which the Ki at ACE (Sigma, A2580) is above 50000 nM; on ACE-2 [1] it was above 500 nM; on Carboxypeptidase A it was above 50000 nM; on ACE-2 [2], above 500 nM.
Turning to `CC(C)C[C@@H](N[C@@H](C(=O)O)c1ccccc1)C(=O)O` [BT, 2-[(Carboxy-phenyl-methyl)-amino]-4-methyl-pentanoic acid], the Ki is above 50000 nM at ACE (Sigma, A2580); above 500 nM at ACE-2 [1]; above 50000 nM at Carboxypeptidase A; above 500 nM at ACE-2 [2].
As to `NCCCC[C@H](NC(CCc1ccccc1)C(=O)O)C(=O)O` (stereo partly shown) [BU, 6-Amino-2-(1-carboxy-3-phenyl-propylamino)-hexanoic acid], the Ki at ACE (Sigma, A2580) was above 50000 nM; at ACE-2 [1], above 500 nM; on Carboxypeptidase A, above 50000 nM; at ACE-2 [2], above 500 nM.
For `CC(C)CC(N[C@@H](Cc1cn(Cc2ccccc2)cn1)C(=O)O)C(=O)O` (stereo partly shown) [BV, 2-[2-(1-Benzyl-1H-imidazol-4-yl)-1-carboxy-ethylamino]-4-methyl-pentanoic acid], the Ki on ACE (Sigma, A2580) is 10000 to 50000 nM; at ACE-2 [1] it was above 500 nM; on Carboxypeptidase A, below 10000 nM; on ACE-2 [2], above 500 nM.
For the compound `CC(C)C[C@H](N[C@@H](Cc1ccccc1)C(=O)O)C(=O)O` [BW, 2-(1-Carboxy-2-phenyl-ethylamino)-4-methyl-pentanoic acid], the Ki is above 50000 nM on ACE (Sigma, A2580); 100 to 500 nM on ACE-2 [1]; 10000 to 50000 nM at Carboxypeptidase A; above 500 nM on ACE-2 [2].
The matching figures for `CC(C)CC(N[C@H](Cc1cn(C)cn1)C(=O)O)C(=O)O` (stereo partly shown) [CA, 2-[-Carboxy-2-(1-methyl-1H-imidazol-4-yl)-ethylamino]-4-methyl-pentanoic acid]: above 50000 nM, above 500 nM, above 50000 nM and above 500 nM.
As for `CC(C)CC(N[C@H](Cc1cncn1C)C(=O)O)C(=O)O` (stereo partly shown) [CB, 2-[1-Carboxy-2-(3-methyl-3H-imidazol-4-yl)-ethylamino]-4-methyl-pentanoic acid], the Ki on ACE (Sigma, A2580) is above 50000 nM; at ACE-2 [1] it was above 500 nM; at Carboxypeptidase A it was above 50000 nM; at ACE-2 [2] it was above 500 nM.
As to `CC(C)CC(N[C@H](Cc1cccnc1)C(=O)O)C(=O)O` (stereo partly shown) [CC, 2-(1-Carboxy-2-pyridin-3-yl-ethylamino)-4-methyl-pentanoic acid], the Ki at ACE (Sigma, A2580) was above 50000 nM; on ACE-2 [1], above 500 nM; at Carboxypeptidase A, above 50000 nM; at ACE-2 [2], above 500 nM.
In the case of `CC(C)CC(N[C@@H](Cc1nc[nH]n1)C(=O)O)C(=O)O` (stereo partly shown) [CD, 2-[1-Caboxy-2-(1H-[1,2,4]triazol-3-yl)-ethylamino]-4-methyl-pentanoic acid], the Ki at ACE (Sigma, A2580) is above 50000 nM; at ACE-2 [1], 100 to 500 nM; on Carboxypeptidase A, above 50000 nM; on ACE-2 [2], above 500 nM.
As to `CC(C)CC(N[C@H](Cc1nc[nH]n1)C(=O)O)C(=O)O` (stereo partly shown) [CE, 2-[1-Carboxy-2-(1H-[1,2,4]triazol-3-yl)-ethylamino]-4-methyl-pentanoic acid], the Ki is above 50000 nM on ACE (Sigma, A2580); above 500 nM on ACE-2 [1]; above 50000 nM on Carboxypeptidase A; above 500 nM on ACE-2 [2].
With `CC(C)CC(NC(Cc1nccs1)C(=O)O)C(=O)O` (stereo not shown) [CF, 2-(1-Carboxy-2-thiazol-2-yl-ethylamino)-4-methyl-pentanoic acid], the Ki at ACE (Sigma, A2580) is above 50000 nM; on ACE-2 [1], 100 to 500 nM; at Carboxypeptidase A it was above 50000 nM; at ACE-2 [2], above 500 nM.
Turning to `CC(C)(C)C[C@H](N[C@@H](C(=O)O)c1ccccc1)C(=O)O` [CJ, 2-[(Carboxy-phenyl-methyl)-amino]-4,4-dimethyl-pentanoic acid], the Ki on ACE (Sigma, A2580) was above 50000 nM; on ACE-2 [1], above 500 nM; at Carboxypeptidase A, above 50000 nM; on ACE-2 [2], above 500 nM.
On to `CC(C)(C)C[C@H](N[C@@H](CCc1ccccc1)C(=O)O)C(=O)O` [CK, 2-(1-Carboxy-3-phenyl-propylamino)-4,4-dimethylpentanoic acid], for which the Ki at ACE (Sigma, A2580) is above 50000 nM; at ACE-2 [1], 100 to 500 nM; at Carboxypeptidase A, above 50000 nM; at ACE-2 [2], above 500 nM.
Regarding `O=C(O)[C@H](CCc1ccccc1)N[C@@H](CC1CC1)C(=O)O` [CL, 2-(1-Carboxy-2-cyclopropyl-ethylamino)-4-phenyl-butync acid], the Ki on ACE (Sigma, A2580) was above 50000 nM; at ACE-2 [1], 100 to 500 nM; at Carboxypeptidase A it was above 50000 nM; at ACE-2 [2] it was above 500 nM.
Consider `CCCCCC[C@H](N[C@H](Cc1c[nH]cn1)C(=O)O)C(=O)O` [CR, 2-[1-Carboxy-2-(1H-imidazol-4-yl)-ethylamino)octanoic acid], for which the Ki was above 50000 nM on ACE (Sigma, A2580); above 500 nM on ACE-2 [1]; above 50000 nM on Carboxypeptidase A; above 500 nM on ACE-2 [2].
As to `CC(C)CC(N[C@H](Cc1cscn1)C(=O)O)C(=O)O` (stereo partly shown) [CV, 2-(1-Carboxy-2-thiazol-4-yl-ethylamino)-4-methyl-pentanoic acid], the Ki on ACE (Sigma, A2580) was above 50000 nM; at ACE-2 [1], above 500 nM; at Carboxypeptidase A, above 50000 nM; at ACE-2 [2] it was above 500 nM.
For the compound `CC(C)(C)C[C@H](N[C@H](CCc1ccccc1)C(=O)O)C(=O)O` [DD, 2-(1-Carboxy-3-phenyl-propylamino)-4,4-dimethylpentanoic acid], the Ki is above 50000 nM at ACE (Sigma, A2580); above 500 nM on ACE-2 [1]; above 50000 nM on Carboxypeptidase A; above 500 nM on ACE-2 [2].
On to `O=C(O)[C@H](CC1CC1)N[C@H](CCc1ccccc1)C(=O)O` [DE, 2-(1-Carboxy-2-cyclopropyl-ethylamino)-4-phenyl-butync acid], for which the Ki is above 50000 nM on ACE (Sigma, A2580); above 500 nM at ACE-2 [1]; above 50000 nM at Carboxypeptidase A; above 500 nM at ACE-2 [2].
Take `COC(=O)[C@H](CC(C)C)NCC(=O)c1ccc(-c2ccccc2)cc1` [DH, 2-(2-Biphenyl-4-yl-2-oxo-ethylamino)-4-methyl-pentanoic acid methylester]: the Ki at ACE (Sigma, A2580) was above 50000 nM; at ACE-2 [1], above 500 nM; on Carboxypeptidase A, above 50000 nM; on ACE-2 [2], above 500 nM.
With `COC(=O)[C@H](CC(C)C)NCC(=O)[C@H](Cc1ccccc1)NC(=O)OCc1ccccc1` [DI, 2-(3-Benzyloxycarbonylamino-2-oxo-4-phenyl-butylamino)-4-methyl-pentanoic acid methylester], the Ki was above 50000 nM on ACE (Sigma, A2580); above 500 nM at ACE-2 [1]; 10000 to 50000 nM at Carboxypeptidase A; above 500 nM on ACE-2 [2].
`O=C(O)C(CCc1ccccc1)N[C@@H](Cc1c[nH]cn1)C(=O)O` (stereo partly shown) [DP, 2-[1-Carboxy-2-(1H-imidazol-4-yl)-ethylamino]4-phenyl-butync acid]: the Ki is 10000 to 50000 nM on ACE (Sigma, A2580); 100 to 500 nM on ACE-2 [1]; above 50000 nM at Carboxypeptidase A; above 500 nM on ACE-2 [2].
The matching figures for `CC(C)CC(CS)C(=O)O` (stereo not shown) [DQ, 2-Mercaptomethyl-4-methyl-pentanoic acid]: above 50000 nM, 100 to 500 nM, above 50000 nM and above 500 nM.
